Structures can show the parent of a compound that is named as a salt.
Key:
[1] = system: castor oil-induced diarrhea in rats; experiment: Castor oil-induced diarrhea in rats; assay type: in vivo, rat (Sprague-Dawley); details: for weight loss: 30 min before castor oil 5 mL/kg, 6-h period; for stool output: 30 min before castor oil, 6-h collection period; for % reduction (weight loss) / % reduction (stool output): vs control (0 mg/kg); for % reduction (weight loss): (1.0-T/C) × 100
Experimental: Male Sprague-Dawley rats (350-400 g, Harlan Sprague-Dawley, Indianapolis, Ind.) were fasted overnight in hanging wire cages and allowed free access to water. A typical experiment involved 20 rats: 5 untreated controls and 5 pretreated with polyamine analogues at each of three doses (typically equivalent on a molar basis to 1, 5, 10, or 25 mg/kg of DEHSPM) as either a sc injection or a po gavage 30 min prior to castor oil. All animals were then challenged with castor oil (purchased from a local drugstore) as a gastric gavage of 5 mL/kg of body weight at t=0 and monitored for the onset and duration of diarrhea at 30-min intervals for a 6-h period during which they received no food or water (Eaker, E. Y.; Bixler, G. B.; Mathias, J. R., J. Pharm Exp. Ther. 1988, 246, 786-789). Onset of diarrhea for the control rats was between 30 and 90 min and lasted for at least 6 h. The animal weight and stool weight were recorded at 2, 4, and 6 h.

[2] = system: stress-induced irritable bowel syndrome in rats; experiment: Stress-induced irritable bowel syndrome in rats; assay type: in vivo, rat (Sprague-Dawley); details: for stool output: 30 min before stress, 6-h collection period; for % reduction (stool output): vs control (0 mg/kg), (1.0-T/C) × 100
Experimental: Male Sprague-Dawley rats (200-350 g, Harlan Sprague-Dawley, Indianapolis, Ind.) were housed in hanging wire cages in a temperature- and humidity-controlled room with a 12hour light/dark cycle; the animals were fasted overnight (unless non-fasted rats were utilized in experiments involving PO administration) and allowed free access to water. Animal care and experimental procedures were approved by the Institutional Animal Care and Use Committee. A typical experiment involved 20 rats: 5 untreated controls and 5 pretreated with polyamine analogues at each of three doses as either a SC injection or a PO gavage 30 min prior to commencement of the stress. All animals were then housed in individual polycarbonate cages containing a clear 70×50 mm Pyrex crystallization dish inverted in the center. To begin the stress, water was added to each cage to within 0.5 cm of the top of the Pyrex dish. The fecal output of the animals was recorded at 30-min intervals for a 6-h period, during which they received no food or water. Stool output was expressed as the number of fecal pellets excreted over the 6-h collection period. Percent reduction was calculated by dividing the mean value from the treated animals (T) by the mean value from the control animals (C), subtracting the resulting quotient from 1.0, and multiplying by 100 [i.e., (1.0−T/C)×100].

small intestine = details: rats; previously reported; cited from earlier work
[3] = dog; compared with 2-3 weeks in mice; cited from earlier work
[4] = mice; HSPM formed by N-deethylation of DEHSPM; cited from earlier work
[5] = sc 0.03125 mg/kg (0.0726 μmol/kg)

CCNCCCN[C@H]1CC[C@H](NCCCNCC)CC1 [CHX(3,4,3)-trans, N,N′-Bis[3-(ethylamino)propyl]-trans-1,4-cyclohexanediamine tetrahydrochloride]
weight loss ([1]; sc 0.0078 mg/kg (0.0181 μmol/kg)): 8.8 ± 1.2 g of weight lost per 350 g of rat weight
stool output ([1]; sc 0.0078 mg/kg): 3.6 ± 1.3 g of stool excreted per 350 g of rat weight
% reduction (weight loss) ([1]; sc 0.0078 mg/kg): 24%
weight loss ([1]; sc 0.0156 mg/kg (0.036 μmol/kg)): 3.1 ± 1.2 g of weight lost per 350 g of rat weight
stool output ([1]; sc 0.0156 mg/kg): 0.4 ± 0.9 g of stool excreted per 350 g of rat weight
% reduction (stool output) ([1]; sc 0.0156 mg/kg): 92%
% reduction (weight loss) ([1]; sc 0.0156 mg/kg): 73%
weight loss [1, 5]: 4.2 ± 1.7 g of weight lost per 350 g of rat weight
stool output ([1]; sc 0.03125 mg/kg): 0 ± 0 g of stool excreted per 350 g of rat weight
% reduction (stool output) ([1]; sc 0.03125 mg/kg): 100%
% reduction (weight loss) ([1]; sc 0.03125 mg/kg): 64%
weight loss ([1]; sc 0.125 mg/kg (0.29 μmol/kg)): 4.1 ± 0.7 g of weight lost per 350 g of rat weight
stool output ([1]; sc 0.125 mg/kg): 0 ± 0 g of stool excreted per 350 g of rat weight
% reduction (stool output) ([1]; sc 0.125 mg/kg): 100%
% reduction (weight loss) ([1]; sc 0.125 mg/kg): 65%
weight loss ([1]; sc 0.25 mg/kg (0.58 μmol/kg)): 2.7 ± 0.7 g of weight lost per 350 g of rat weight
stool output ([1]; sc 0.25 mg/kg): 0 ± 0 g of stool excreted per 350 g of rat weight
% reduction (stool output) ([1]; sc 0.25 mg/kg): 100%
% reduction (weight loss) ([1]; sc 0.25 mg/kg): 77%
weight loss ([1]; sc 0.5 mg/kg (1.16 μmol/kg)): 2.9 ± 0.1 g of weight lost per 350 g of rat weight
stool output ([1]; sc 0.5 mg/kg): 0 ± 0 g of stool excreted per 350 g of rat weight
% reduction (stool output) ([1]; sc 0.5 mg/kg): 100%
% reduction (weight loss) ([1]; sc 0.5 mg/kg): 75%
weight loss ([1]; sc 0.625 mg/kg (0.145 μmol/kg)): 3.7 ± 0.8 g of weight lost per 350 g of rat weight
stool output ([1]; sc 0.625 mg/kg (0.145 μmol/kg)): 0 ± 0 g of stool excreted per 350 g of rat weight
% reduction (stool output) ([1]; sc 0.625 mg/kg (0.145 μmol/kg)): 100%
% reduction (weight loss) ([1]; sc 0.625 mg/kg (0.145 μmol/kg)): 68%
weight loss ([1]; sc 0.99 mg/kg (2.3 μmol/kg)): 2.7 ± 1.3 g of weight lost per 350 g of rat weight
stool output ([1]; sc 0.99 mg/kg): 0 ± 0 g of stool excreted per 350 g of rat weight
% reduction (stool output) ([1]; sc 0.99 mg/kg): 100%
% reduction (weight loss) ([1]; sc 0.99 mg/kg): 77%
weight loss ([1]; sc 4.97 mg/kg (11.6 μmol/kg)): 1.6 ± 1.1 g of weight lost per 350 g of rat weight
stool output ([1]; sc 4.97 mg/kg): 0 ± 0 g of stool excreted per 350 g of rat weight
% reduction (stool output) ([1]; sc 4.97 mg/kg): 100%
% reduction (weight loss) ([1]; sc 4.97 mg/kg): 86%
weight loss ([1]; sc 24.87 mg/kg (57.8 μmol/kg)): 0.8 ± 0.7 g of weight lost per 350 g of rat weight
stool output ([1]; sc 24.87 mg/kg): 0 ± 0 g of stool excreted per 350 g of rat weight
% reduction (stool output) ([1]; sc 24.87 mg/kg): 100%
% reduction (weight loss) ([1]; sc 24.87 mg/kg): 93%
stool output relative to controls (in words) ([1]; sc doses of 0.0156 mg/kg to 24.9 mg/kg, P<0.001 for all doses): significantly decreased stool output
reduction in weight loss (in words) ([1]; sc, doses ranging from 0.0078 mg/kg to 24.9 mg/kg, all dose levels, P<0.005 to P<0.001): significant reduction in weight loss
fecal output after oral administration (in words) ([2]; oral, doses ≧5 mg/kg, P≦0.001): diminished fecal output
stool output [2, 5]: 5.4 ± 2.1 number of fecal pellets
% reduction (stool output) ([2]; sc 0.03125 mg/kg): 52.2%
stool output ([2]; sc 0.0625 mg/kg (0.145 μmol/kg)): 2.2 ± 1.3 number of fecal pellets
% reduction (stool output) ([2]; sc 0.0625 mg/kg): 80.5%
stool output ([2]; sc 0.125 mg/kg (0.29 μmol/kg)): 0.6 ± 0.9 number of fecal pellets
% reduction (stool output) ([2]; sc 0.125 mg/kg): 94.7%
stool output ([2]; sc 0.25 mg/kg (0.58 μmol/kg)): 0 ± 0 number of fecal pellets
% reduction (stool output) ([2]; sc 0.25 mg/kg): 100%
stool output ([2]; sc 0.5 mg/kg (1.16 μmol/kg)): 0 ± 0 number of fecal pellets
% reduction (stool output) ([2]; sc 0.5 mg/kg): 100%
stool output ([2]; sc 0.99 mg/kg (2.3 μmol/kg)): 0 ± 0 number of fecal pellets
% reduction (stool output) ([2]; sc 0.99 mg/kg): 100%
reduction in fecal output (in words) ([2]; sc, doses ranging from 0.03 mg/kg to 0.99 mg/kg, all dose levels, P<0.001): significant reduction in fecal output

CCNCCCCNCCCCNCCCCNCC [DEHSPM, N^1, N^14 diethylhomospermine]
myoelectric activity and transit of the small intestine (in words) (small intestine): inhibited

NCCCCNCCCCNCCCCN [HSPM, homospermine]
half life (in words) [3]: even longer
half life [4]: 2-3 weeks
